Experimental data reported in PMC7318222, “A Family of Water‐Immiscible, Dipolar Aprotic, Diamide Solvents from Succinic Acid” (Chemsuschem, 2020).

What was measured:
p21 = p21 CALUX assay (DNA damage response); assay type: cell-based, human; design: key: –: no effect observed up to the highest test concentration; conditions: cell signaling pathway assay, 24 h exposure
Excerpt: Six of the CALUX assays (TCF through p53) detect activation of several cellular signaling pathways, which are indicative of general stress and acute toxicity, but also a range of more specific types of toxicity, including reproductive toxicity. […]
DCM ≥99.5%, chloroform ≥99.5%, DMSO ≥99.0% were purchased from VWR. […]
Polyarylethersulfone of 55,000 Da were obtained from INGE.BASF, Germany. The CALUX cell lines have been described previously.[1] They are based on human U2-OS cells (ATCC, HTB-96) stably transfected with an expression construct for the full-length human receptor under investigation, and a reporter construct consisting of multimerized responsive elements for the cognate receptor coupled to a minimal promoter element (TATA) and a luciferase gene. Cells were maintained as described previously,[2] using cell culture media and supplements from Fisher Scientific as described in the experimental procedures section. […]
(§1) In vitro reporter gene assays
(§2) The automated CALUX assays were carried out similarly as described earlier,[12] with some adaptations. In brief, the assay was performed in CO2 independent medium (Fisher Scientific, […]
(§3) supplement (Fisher Scientific, 11574466), 10 U/mL penicillin and 10 µg/mL streptomycin. A cell suspension in assay medium was made of 1 × 10^5cells/mL, and white 384-wells plates were seeded with 30 µl cell suspension/well. After 24 h, exposure medium was prepared. A dilution series in 0.5log unit increments of each test compound (in DMSO) was added to a 96-wells plate containing assay medium (2% v/v). Of this exposure mixture, 30 µl was added to the assay plates containing the CALUX cells, resulting in a final DMSO concentration of 1%. Additionally, DMSO blanks and a full dose response curve of the relevant reference compound were included on each plate. All samples were tested in triplicate. The preparation of the compound dilution series as well as the exposure of the cells were performed on a Hamilton StarLET liquid handling robot coupled to a Cytomat incubator.
(§4) Directly after exposure, plates were sealed with non-breathing plate seals (Plate sealer, easy seal transparent; Greiner-Bio-One, 676001). After 24 h the exposure medium was removed using an EL406 washer-dispenser (BioTek) and 10 µl/well triton lysisbuffer was added by the EL406.
Subsequently, the luciferase signal was measured in a luminometer (InfinitePro coupled to a Connect Stacker, both TECAN). In order to be able to detect receptor antagonism, several assays were also performed in antagonistic mode. The assay procedure was as described above, with the only exception that the EC50 concentration of the reference agonist was present during the exposure.
The luminometer data was analysed as follows; the average of the triplicate wells was determined, and the average blank (DMSO) value was subtracted. For receptor-based assays the maximum response elicited by the reference compound was set to 100% (full receptor- or pathway activation), and the other values were scaled accordingly. GraphPad Prism was used to fit a sigmoidal curve through the data (four parameters, variable slope). […] For antagonist- and cytotoxicity experiments, PC20 values were determined instead, which was defined as the concentration where the test compound causes a 20% decrease in the basal signal, which was […]
(§5) curve, the signal induction above background (DMSO) was determined, and the concentration where the compound elicited a 1.5-fold increase above background was used as LEC.

AhR = target: T1, AhR (Homo sapiens, UniProt P35869); assay: AhR CALUX reporter gene assay; assay type: cell-based; design: key: –: no effect observed up to the highest test concentration; conditions: PC10, 24 h exposure
T1 construct: expression construct for the full-length human receptor under investigation; expressed in transfected cells; host or cells: human U2-OS cells (ATCC HTB-96), stably transfected
T1 sequence (P35869 11-848): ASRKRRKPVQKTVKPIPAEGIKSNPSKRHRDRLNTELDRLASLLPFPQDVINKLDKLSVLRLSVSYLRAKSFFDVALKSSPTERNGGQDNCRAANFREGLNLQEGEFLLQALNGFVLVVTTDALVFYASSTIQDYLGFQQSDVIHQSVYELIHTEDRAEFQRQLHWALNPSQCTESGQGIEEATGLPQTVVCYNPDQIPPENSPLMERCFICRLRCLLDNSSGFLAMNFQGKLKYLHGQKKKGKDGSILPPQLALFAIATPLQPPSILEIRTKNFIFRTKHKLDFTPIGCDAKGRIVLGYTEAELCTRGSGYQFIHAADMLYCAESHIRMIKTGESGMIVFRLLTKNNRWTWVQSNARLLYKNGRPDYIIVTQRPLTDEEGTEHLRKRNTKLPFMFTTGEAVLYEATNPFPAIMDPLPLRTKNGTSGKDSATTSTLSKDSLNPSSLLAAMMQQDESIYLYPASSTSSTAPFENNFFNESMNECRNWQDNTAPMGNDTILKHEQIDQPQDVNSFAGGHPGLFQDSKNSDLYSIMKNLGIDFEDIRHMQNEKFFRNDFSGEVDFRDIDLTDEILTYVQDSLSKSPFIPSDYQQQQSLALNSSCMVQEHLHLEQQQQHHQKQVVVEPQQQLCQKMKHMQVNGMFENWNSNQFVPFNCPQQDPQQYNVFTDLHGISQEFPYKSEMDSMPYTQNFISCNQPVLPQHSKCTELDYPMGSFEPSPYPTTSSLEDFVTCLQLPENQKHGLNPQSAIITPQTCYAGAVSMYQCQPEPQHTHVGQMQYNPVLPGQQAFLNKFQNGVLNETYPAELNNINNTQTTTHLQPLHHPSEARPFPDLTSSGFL
Excerpt: 2-methylimidazole 99.0%, zinc(II) nitrate hexahydrate ≥99.0%, para-cymene 99.0%, 1,4-dioxane 99.8% (anhydrous), 4-nitroaniline ≥99.0%, 1-octanol ≥99.0%, diglyme ≥99.0%, DMSO-d6 (99.8% D) and chloroform-d (99.8% D) were purchased from Sigma-Aldrich. Toluene ≥99.0%, hexane ≥99.5%, DCM ≥99.5%, chloroform ≥99.5%, DMSO ≥99.0% were purchased from VWR. N,N-diethyl-4-nitroaniline ≥98.0% was purchased from Alfa Aeser. Cyrene was supplied by Circa group. N-butylpyrrolidinone was supplied by Eastman chemicals. N,N-dimethylformamide 99.9% and N,N-dimethylacetamide 99.9% were purchased from Fischer. The flakes of Ultrason® E3020 P Polyarylethersulfone of 55,000 Da were obtained from INGE.BASF, Germany. The CALUX cell lines have been described previously.[1] They are based on human U2-OS cells (ATCC, HTB-96) stably transfected with an expression construct for the full-length human receptor under investigation, and a reporter construct consisting of multimerized responsive elements for the cognate receptor coupled to a minimal promoter element (TATA) and a luciferase gene. Cells were maintained as described previously,[2] using cell culture media and supplements from Fisher Scientific as described in the experimental procedures section. […]
as §1, §2, §3, §4
Subsequently, the luciferase signal was measured in a luminometer (InfinitePro coupled to a Connect Stacker, both TECAN). In order to be able to detect receptor antagonism, several assays were also performed in antagonistic mode. […]
The luminometer data was analysed as follows; the average of the triplicate wells was determined, and the average blank (DMSO) value was subtracted. […] For antagonist- and cytotoxicity experiments, PC20 values were determined instead, which was defined as the concentration where the test compound causes a 20% decrease in the basal signal, which was […]
as §5

Row | SMILES | LEC p21 (p21) | LEC AhR (AhR)
1 | CCCCN(CC)C(=O)CCC(=O)N(CC)CCCC [EBSA, N,N′‐diethyl‐N,N′‐dibutylsuccindiamide] | – | –
2 | CCCCN(C)C(=O)CCC(=O)N(C)CCCC [MBSA, N,N′‐dimethyl‐N,N′‐dibutylsuccindiamide] | – | –
3 | CCCCN1CCCC1=O [NBP, N‐Butylpyrrolidinone, reference compound] | – | –
4 | CN1CCCC1=O [NMP, N‐methyl‐2‐pyrrolidone, reference compound] | −2.0 Log M | −2.0 Log M
5 | CCCCN(CCCC)C(=O)CCC(=O)N(CCCC)CCCC [TBSA, N,N,N′,N′‐tetrabutylsuccindiamide] | – | –
